# Measurements reported in patent publication US12622968B2, “Formulation for oral delivery of proteins, peptides and small molecules with poor permeability” (R.P. Scherer Technologies, LLC, priority 2019, dated 2026).
# Like-named read-outs stand apart in the source and are kept apart here.
# Assay: Single dose oral capsule pharmacokinetics of BHV-3500 in dogs (plasma LC-MS/MS)
# Assay type: in vivo, beagle dogs
# Details: female, beagle, dog, plasma; for Tmax: read-out: Tmax; for concentration at 1 h: 1 h post-dose; for concentration at 1 h / concentration at 2 h / concentration at 4 h: read-out: BHV-3500 Concentration in Dog Plasma; for concentration at 2 h: 2 h post-dose; for Cmax: read-out: Cmax; for concentration at 4 h: 4 h post-dose; for AUC(0-t): read-out: AUC0-4 hr
# Description: The pharmacokinetics (PK) of BHV-3500 after a single oral capsule of BHV-3500 in dogs were investigated.
# After each dose, blood samples (approximately 3 mL from the jugular vein) for determination of plasma levels of BHV-3500 were obtained from of each dog at six time points (pre-dose; 15, 30, and 60 minutes and 2 and 4 hours post-dose. EDTA was used as the anticoagulant. Plasma samples were frozen at approximately −70′C until analyzed.
# For the determination of BHV-3500 in plasma, a 50 μL aliquot from each sample was transferred into the appropriate well of a 96-well plate to which 10 μL of 50% acetonitrile (ACN) in water was added, followed by 250 μL of internal standard solution (10 ng/mL BHV-3500-d8 in ACN). After sealing the plate and vortexing for approximately 5 minutes, the plate was centrifuged at 4,000 rpm for 10 minutes at 4±4° C. A portion (100 μL) of the resulting supernatant was transferred to into the appropriate well (containing 300 μL 0.15% formic acid in water) of another 96-well plate. This plate was sealed and its contents mixed prior to instrumental analysis.
# Freshly prepared BHV-3500 standard curves and QC samples were analyzed along with the study samples. Instrument calibrators were prepared by adding 10 μL of a stock BHV-3500 solution to 50 μL of blank dog plasma. Blank dog plasma was sourced from BioIVT (Hicksville, NY) and stored frozen at −20° C. Nominal calibrator concentrations ranged from 2.00 to 200 ng/mL. QC samples were prepared at concentrations of 6.00, 50.0 and 150 ng/mL. Calibrators and QC samples were processed for analysis following the extraction procedure described above.
# Calibrator, QC and study samples were analyzed under LC-S/MS instrument conditions detailed in Table 7.
# Calibration curves were calculated from the linear regression (weighting factor of 1/x2) of the analyte to internal standard peak area ratios versus the analyte concentrations. Concentrations of analyte in the samples were determined using the peak area ratios and the regression parameters of the calibration curves.
# Individual animal plasma BHV-3500 concentration data at scheduled (nominal) sampling times were analyzed using the non-compartmental model f r extravascular administration with Phoenix WinNonlin software (Version 8.1; Certara, Princeton, NJ).
# Elimination rate constant values (λz) were calculated by log-linear regression on data points of the terminal phase (using Phoenix WinNonlin's Best Fit Lambda Z Calculation Method option) when allowed by the data; the plasma elimination half-life (t1/2) was calculated as ln(2)/λz. Area under the plasma concentration-time curve values from time zero to the concentration at the 4 hour time point (AUC0-4 hr) were calculated by the linear-up/log-down trapezoidal rule.
# Nominal dose levels were used for PK analysis. The PK parameters listed below were evaluated (as applicable and when allowed by the data). • Elimination half-life (t1/2) • Time of occurrence of maximum plasma concentration (Tmax) • Maximum plasma concentration (Cmax) • Area under plasma concentration-time curve [0 to the 4 hour time point; AUC0-4hr]
# [1] = po, 50 mg, Group 4, oral capsule, 50 mg BHV-3500, no vehicle, average
# [2] = po, 50 mg, Group 4, oral capsule, 50 mg BHV-3500, no vehicle, individual dogs
# [3] = po, 50 mg, Group 5, oral capsule, 50 mg BHV-3500 in 900 mg vehicle of Formulation 2 (SEDDS excipients), average
# [4] = po, 50 mg, Group 6, oral capsule, 50 mg BHV-3500 in 25 mg DDM, average
# [5] = po, 50 mg, Group 6, oral capsule, 50 mg BHV-3500 in 25 mg DDM, individual dogs
# [6] = Group 2, oral capsule, 20 mg BHV-3500 in 900 mg vehicle of Formulation 2 (SEDDS excipients), individual dogs
smiles,measurement,setting,value
"Cc1cc(C[C@@H](NC(=O)N2CCC(c3cc4ccccc4[nH]c3=O)CC2)C(=O)N2CCN(C3CCN(C)CC3)CC2)cc2cn[nH]c12 [BHV-3500, (R)—N-(3-(7-methyl-1H indazol-5-yl)-1-(4-(1-methylpiperidin-4-yl)piperazin-1-yl)-1-oxopropan-2-yl)-4-(2-oxo-1,2 dihydroquinolin-3-yl)piperidine-1-carboxamide]",Tmax,"po, 20 mg, Group 3, oral capsule, 20 mg BHV-3500 in 25 mg DDM, median",2 h
same,concentration at 1 h,[1],3.35 ng/mL
same,concentration at 1 h,[2],2.25 ng/mL
same,concentration at 2 h,[1],6.18 ng/mL
same,concentration at 2 h,[2],7.57 ng/mL
same,Cmax,[1],6.18 ng/mL
same,Cmax,[2],7.57 ng/mL
same,Tmax,[2],2 h
same,Tmax,"po, 50 mg, Group 4, oral capsule, 50 mg BHV-3500, no vehicle, median",2 h
same,concentration at 1 h,[3],11.5 ng/mL
same,concentration at 2 h,[3],40.6 ng/mL
same,concentration at 4 h,[3],7.97 ng/mL
same,AUC(0-t),[3],70.6 ng·h/mL
same,Cmax,[3],40.6 ng/mL
same,Tmax,"po, 50 mg, Group 5, oral capsule, 50 mg BHV-3500 in 900 mg vehicle of Formulation 2 (SEDDS excipients), individual dogs",2 h
same,Tmax,"po, 50 mg, Group 5, oral capsule, 50 mg BHV-3500 in 900 mg vehicle of Formulation 2 (SEDDS excipients), median",2 h
same,concentration at 1 h,[4],2.42 ng/mL
same,concentration at 1 h,[5],2.42 ng/mL
same,concentration at 2 h,[4],6.05 ng/mL
same,concentration at 2 h,[5],6.05 ng/mL
same,concentration at 4 h,[4],8.67 ng/mL
same,concentration at 4 h,[5],12 ng/mL
same,AUC(0-t),[4],17.3 ng·h/mL
same,Cmax,[4],6.59 ng/mL
same,Tmax,"po, 50 mg, Group 6, oral capsule, 50 mg BHV-3500 in 25 mg DDM, median",4 h
same,concentration at 1 h,[6],2.57 ng/mL
same,concentration at 4 h,[6],3.09 ng/mL
same,concentration at 4 h,"Group 6, oral capsule, 50 mg BHV-3500 in 25 mg DDM, individual dogs",5.34 ng/mL
